Here are results for two molecules from patent US7399871B2, “Crystal forms of (S)-(+)-N,N-dimethyl-3-(1-naphthalenyloxy)-3-(2-thienyl)propanamine oxalate and the preparation thereof” (Teva Pharmaceutical Industries Ltd., priority 2005, dated 2008).

SMILES strings stand for the structures.

The series can be described thus: Storage stability of DNT-Oxal crystal forms (polymorphic form by XRD). The format is physicochemical. The conditions noted are these: stored at room temperature for 11 months; for Crystal form after the storage: crystal form before vs after the storage, oxalate. As to the method: Crystal forms of DNT-Oxal were stored at room temperature for 11 months. […] The forms of DNT-Oxal were identified using a Scintag X-ray powder diffractometer model X'TRA with a Cu-tube solid state detector. The sample holder was a round standard aluminum sample holder with rough zero background quartz plate with a cavity having a diameter of 25 mm and a depth of 0.5 mm. The scanning parameters were as follows: a range of 2° to 40° 2θ; a continuous scan mode, and a step size of 0.05° at a rate of 3°/minute.

For `CN(C)CC[C@H](Oc1cccc2ccccc12)c1cccs1.O=C(O)C(=O)O` [Form II, (S)-(+)-N,N-Dimethyl-3-(1-naphthalenyloxy)-3-(2-thienyl)propanamine oxalate], the “Polymorphic stability on storage” value is listed as “polymorphically stable” and the “Crystal form after the storage” value is “Form II”.

Consider `CN(C)CC[C@H](Oc1cccc2ccccc12)c1cccs1.O=C(O)C(=O)O` [Form III, (S)-(+)-N,N-Dimethyl-3-(1-naphthalenyloxy)-3-(2-thienyl)propanamine oxalate], for which the “Polymorphic stability on storage” value is given as “polymorphically stable” and the “Crystal form after the storage” value is listed as “Form III”.
